{
  "source": "patent US20250312300A1",
  "about": "“BRIDGED BICYCLIC CARBOXYLIC ACIDS FOR TREATING OSTEOSARCOMA AND EWING SARCOMA” (UEA ENTERPRISES LIMITED, priority 2022, published 2025)",
  "key": {"[1]": {"system": "TC71 (human ES) cells", "experiment": "Proliferation assay (WST-1), ES cells", "assay_type": "cell-based", "conditions": "100 μM CADD522, 72 h, WST-1, relative to control", "method": "(§1) Cell lines. 143B (human OS) and TC71 (human ES) cells were obtained from ATCC. Cells were authenticated by STR profiling and were cultured in DMEM/F-12 (Thermo Fisher Scientific) or IMDM (Thermo Fisher Scientific) containing 1% (v/v) insulin transferrin selenium, 10% (v/v) FBS and 1% (v/v) penicillin/streptomycin. Medium was refreshed every other day and cells were maintained at 37° C. in 5% CO2. For the animal experiments 143B and TC71 cells were modified by transfecting with the GFP-luciferase tagged LVP02 lentivirus (AMSBIO). Adding the luciferase tag had no effect on cell phenotype.\n(§2) Proliferation assays. 1×10^3 cells in 100 μL of medium were seeded per well into 96-well plates. PBS was added to outer wells to prevent evaporation. All plates were incubated for 24 h at 37° C. in 5% CO2. 100 nM, 1 μM, 10 μM and 100 μM CADD522 were added from a stock concentration of 10 mM in DMSO and incubated for 72 h before measuring cell viability/proliferation using the WST-1 assay kit (Abcam) following manufacturer's instructions. Data was presented as relative to the control (appearing as −11 on x-axis), which is set to 100% viability. Experiments were performed in quadruplicates in three independent experiments.\n(§3) Statistics. […] Data was tested for normality by D'Agostino Pearson Omnibus test and analysed in GraphPad Prism v9 with p=<0.05 regarded as significant. […]"}, "[2]": {"system": "143B+GFP-Luc (OS) cells", "experiment": "PBC xenograft mouse model, OS", "assay_type": "in vivo, BALB/c nude mice", "method": "(§4) Mice. The University of Sheffield Animal Welfare and Ethics Committee approved the animal experiments. Experiments were performed under licence in accordance with the UK Home Office guidelines and under the Animals (Scientific Procedures) Act 1986. Six- to seven-week-old female BALB/c nude mice (Charles River Laboratories) were acclimatised for one week prior to in vivo study. Mice were housed with a 12 h light-dark cycle at 22° C. and had free access to 2018 Teklad global 18% protein rodent diet containing 1.01% calcium (Harlan) and water. Mice were anesthetised by isoflurane inhalation before implantation with 2.5×10^5 143B+GFP-Luc (OS) cells or 5×10^5 TC71+GFP-Luc (ES) cells in 20 μl PBS onto the tibial surface. Mice were matched by weight and initial IVIS signal and then randomly divided into groups (n=8 mice/group). CADD522 treatment commenced the day after tumours became visible. Mice received either vehicle control (PBS and DMSO) or CADD522 (25 mg/kg) by IP injection five times per week. Tumours were measured by callipers throughout the study twice per week blinded. Two perpendicular measurements were taken and volume calculated by the formula V=0.523×L×(S)^2 where L and S refer to the largest and smallest measurement. Mice were treated until the palpable tumour reached the permissible 12 mm diameter limit. At the end of the procedure ex vivo imaging of mouse internal organs was performed to detect metastasis. Prior to killing, mice were injected subcutaneously with 150 mg/kg XenoLight D-Luciferin substrate (Perkin Elmer) that was left to disperse for a minimum of 5 m. Dissected organs were then imaged using the IVIS Lumina II. Mice legs and lungs were dissected and fixed in 10% formalin for further analysis.\nMicro-CT. Fixed tibiae were scanned using a SkyScan 1172 desktop micro-CT machine (Bruker) at 8 um resolution with the X-ray source operating at 50 kV, 200 uA and using a 0.5 mm aluminium filter. Images were captured every 0.7°. Scanned images were reconstructed using Skyscan NRecon software v1.6.9 (Bruker). The region of interest (ROI) for the total bone volume was selected to include both the tibia and fibula and was determined at the top of the bone as soon as the tibia enters the image to the lower point where the tibia and fibula meet.\nHistology. Bones were fixed in neutral buffered formalin for 48 h after which they were transferred to 70% ethanol. Bones were then decalcified in 10% EDTA, embedded in paraffin and 5 μm sections produced. Sections were de-waxed in xylene, rehydrated through graded alcohols and stained in haematoxylin (VWR) and eosin. The sections were dehydrated through graded alcohols and coverslips were mounted in DPX and imaged using Olympus BX51 microscope (Olympus Life Sciences) and Pannoramic 250 Flash III slide scanner (3[…]).\nStatistics. For statistical tests p=<0.05 was considered as statistically significant. Proliferation data is reported for each experimental repeat (n=3). Data was tested for normality by D'Agostino Pearson Omnibus test and analysed in GraphPad Prism v9 with p=<0.05 regarded as significant. A one-way ANOVA was used to identify any differences in proliferation across the concentration range tested compared to the untreated control. A post-hoc Dunnett's multiple comparison was then used to determine which concentration impacted proliferation compared to the untreated control. […]"}, "[3]": {"system": "143B (human OS) cells", "experiment": "Proliferation assay (WST-1), OS cells", "assay_type": "cell-based", "conditions": "100 μM CADD522, 72 h, WST-1, relative to control", "method": "as §1, §2, §3"}, "[4]": {"system": "TC71+GFP-Luc (ES) cells", "experiment": "PBC xenograft mouse model, ES", "assay_type": "in vivo, BALB/c nude mice", "method": "as §4, with “Mice legs and lungs were dissected and fixed in 10% formalin for further analysis.” left out\nMicro-CT. […] The region of interest (ROI) for the total bone volume was selected to include both the tibia and fibula and was determined at the top of the bone as soon as the tibia enters the image to the lower point where the tibia and fibula meet. […]\nas §3"}, "[5]": {"experiment": "Observed toxicity in treated PBC model mice", "assay_type": "in vivo", "conditions": "25 mg/kg over the study period", "method": "as §4, with “At the end of the procedure ex vivo imaging of mouse internal organs was performed to detect metastasis. Prior to killing, mice were injected subcutaneously with 150 mg/kg XenoLight D-Luciferin substrate (Perkin Elmer) that was left to disperse for a minimum of 5 m. Dissected organs were then imaged using the IVIS Lumina II. Mice legs and lungs were dissected and fixed in 10% formalin for further analysis.” left out"}, "[6]": {"system": "osteosarcoma and Ewing sarcoma", "conditions": "PMID: 20068084; cited from earlier work"}, "[7]": {"system": "osteosarcoma", "conditions": "at 18 weeks of treatment, PMID: 33580363; cited from earlier work"}, "[8]": {"conditions": "25 mg/kg IP, compared to controls"}},
  "note": "Entries after “also recorded” stand apart in the source; their conditions may differ.",
  "data": [
    {"compound": "O=C(O)C1C2C=CC(C2)C1C(=O)Nc1ccc(Cl)c(Cl)c1", "note": "(stereo not shown) [CADD522, 3-(N-(3,4-dichlorophenyl)carbamoyl)-5-norbornene-2-carboxylic acid]", "values": [
      {"measurement": "ES cell viability/proliferation", "setting": "[1]", "result": "cytotoxic; also recorded: showed cell proliferation differences"},
      {"measurement": "metastasis-free survival, OS mice", "setting": "[2]; 25 mg/kg IP five times per week vs control, p=0.0091", "result": "significantly increased metastasis-free survival"},
      {"measurement": "overall survival, OS mice", "setting": "[2]; 25 mg/kg IP five times per week vs control, p=0.093", "result": "Half of OS mice receiving CADD522 treatment survived longer than the control group"},
      {"measurement": "OS tumour volume over time", "setting": "[2]; 25 mg/kg IP five times per week vs vehicle control, p=0.0072", "result": "significantly reduced tumour volume"},
      {"measurement": "histology (H&E) of OS tumours at endpoint", "setting": "[2]; [8]", "result": "more densely packed, generally more vascularised and more organised (arranged in chords)"},
      {"measurement": "bone volume difference, tumour bearing leg vs contralateral (CL) leg (micro-CT)", "setting": "[2]; OS mice, 25 mg/kg IP, in control mice difference significant (p=0.02)", "result": "no longer statistically significant"},
      {"measurement": "OS cell viability/proliferation", "setting": "[3]", "result": "cytotoxic effect; also recorded: significantly reduced cell proliferation"},
      {"measurement": "overall survival, ES mice", "setting": "[4]; 25 mg/kg IP five times per week vs control, p=0.043", "result": "Significantly increased overall survival"},
      {"measurement": "ES tumour volume over time", "setting": "[4]; 25 mg/kg IP five times per week vs vehicle control, p=0.0003", "result": "significantly reduced tumour volume"},
      {"measurement": "histology (H&E) of ES tumours at endpoint", "setting": "[4]; [8]", "result": "generally more vascularised"},
      {"measurement": "observed toxicity in the animals", "setting": "[5]", "result": "no observed toxicity"}
    ]},
    {"compound": "C/C(=C\\c1csc(C)n1)[C@@H]1C[C@@H]2O[C@]2(C)CCC[C@H](C)[C@H](O)[C@@H](C)C(=O)C(C)(C)[C@@H](O)CC(=O)N1", "note": "[ixabepilone]", "values": [
      {"measurement": "clinical response", "setting": "[6]", "result": "no partial or complete responses were observed"}
    ]},
    {"compound": "pembrolizumab", "values": [
      {"measurement": "clinical benefit", "setting": "[7]", "result": "no patients had clinical benefit"}
    ]}
  ]
}
